Target: T1, aryl hydrocarbon receptor (Rattus norvegicus, UniProt P41738, Q794H)
T1 construct: The SD-line rat AhR gene-coding region was amplified from the reverse-transcribed sample by means of PCR; V5-His (C-terminal tag of vector pcDNA4/V5-His B); expressed in transfected cells; host or cells: mouse neuroblastoma Neuro2a, transient transfection with LIPOFECTAMINE 2000
T1 sequence (P41738 10-853 Q794H): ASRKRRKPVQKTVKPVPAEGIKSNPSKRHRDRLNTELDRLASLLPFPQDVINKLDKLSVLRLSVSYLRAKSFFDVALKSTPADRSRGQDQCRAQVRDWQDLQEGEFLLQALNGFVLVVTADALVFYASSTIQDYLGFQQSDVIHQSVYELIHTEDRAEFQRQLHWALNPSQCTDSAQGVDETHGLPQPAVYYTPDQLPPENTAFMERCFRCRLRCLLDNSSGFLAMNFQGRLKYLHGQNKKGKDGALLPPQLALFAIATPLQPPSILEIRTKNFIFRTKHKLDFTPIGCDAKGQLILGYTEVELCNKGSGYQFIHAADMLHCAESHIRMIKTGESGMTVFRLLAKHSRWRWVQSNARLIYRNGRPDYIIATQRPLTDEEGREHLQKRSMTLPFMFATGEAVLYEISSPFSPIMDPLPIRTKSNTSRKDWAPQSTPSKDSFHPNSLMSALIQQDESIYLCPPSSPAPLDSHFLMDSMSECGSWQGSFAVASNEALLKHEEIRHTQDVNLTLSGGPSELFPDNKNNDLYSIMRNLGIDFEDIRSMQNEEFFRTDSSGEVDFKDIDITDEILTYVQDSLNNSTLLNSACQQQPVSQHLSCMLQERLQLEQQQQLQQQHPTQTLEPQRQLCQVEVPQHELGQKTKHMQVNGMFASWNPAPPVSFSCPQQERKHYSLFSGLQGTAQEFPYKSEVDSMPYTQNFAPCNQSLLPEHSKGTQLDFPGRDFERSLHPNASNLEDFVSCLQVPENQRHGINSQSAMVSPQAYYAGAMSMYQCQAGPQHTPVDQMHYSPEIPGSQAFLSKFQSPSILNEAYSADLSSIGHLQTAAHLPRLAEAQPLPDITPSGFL
Assay: Reporter gene assay in Neuro2a with pTHE100/Luc, pTHE100×3/Luc and pTHE100×5/Luc (tandem copies of SEQ ID No: 3)
Type: cell-based, SD-line rat
Description: The terminal of the “region of SEQ ID No: 3 amplified by PCR in Example 6” was phosphorylated with 5′-polynucleotide kinase (Takara Bio Inc.), and then, the regions of SEQ ID No: 3 were ligated in tandem with each other by using a ligation kit (Toyobo). The ligated DNA fragment was digested with restriction enzymes KpnI and NheI, and subjected to agarose gel electrophoresis. DNA fragment consisting of three copies of the regions of SEQ ID No: 3 linked in tandem and DNA fragment consisting of five copies of the regions of SEQ ID No: 3 linked in tandem were excised from the gel based on their molecular weight, and purified with a QIAQUICK Gel Extraction Kit. These DNA fragments were digested with KpnI and NheI, and incorporated into a vector pTHE100/Luc containing no region of SEQ ID No: 3, to prepare a recombinant vector pTHE100×3/Luc containing three tandem copies of the regions of SEQ ID No: 3, and a recombinant vector pTHE100×5/Luc containing five tandem copies of the regions of SEQ ID No: 3 (FIG. 7A). pTH100/Luc, pTHE100×3/Luc, and pTHE100×5/Luc were introduced into Neuro2a by a method similar to that in Example 3. The obtained cell was exposed to 10 nM TCDD, and then, the change in the expression amount of the reporter gene was examined (FIG. 7B).
Further, the transcriptional response to the TCDD concentration and the transcriptional response to dioxin congeners were evaluated by using the pTHE100×3/Luc. The transcriptional response to the TCDD concentration was determined by a method similar to that in Example 3, specifically, by incorporating the vector pTHE100×3/Luc into Neuro2a, exposing the obtained cell to 1 to 10,000 μM of TCDD, and measuring the change in the expression amount of the reporter gene. […] On the other hand, the transcriptional response to dioxin congeners was determined by a method similar to that in Example 3, specifically, by incorporating the vector pTHE100×3/Luc into Neuro2a, exposing the obtained cell to eight kinds of dioxin congeners including TCDD, and measuring the activity of these congeners on transcriptional regulation. […]

## Clc1cc2c(cc1Cl)Oc1cc(Cl)c(Cl)cc1O2 [TCDD, 2,3,7,8-tetrachlorodibenzo-p-dioxine]
10 nM TCDD, pTH100/Luc, pTHE100×5/Luc
  increase in the activity of the test substance on transcriptional regulation, by number of copies of SEQ ID No: 3: highest with the vector pTHE100×3/Luc
Eight kinds of dioxin congeners tested
  influence of dioxin congeners on transcriptional regulation: exerted influence on transcriptional regulation
Exposure 1 to 10,000 μM of TCDD (so in the source)
  expression amount of the reporter gene versus TCDD concentration: increased statistically significantly with the increase in TCDD concentration up to 10 μM

— patent US7811760B2, “Vector and method for detecting the change in transcription amount” (priority 2006, dated 2010)
